Cell death data for 1 compound are collected here from patent publication US20060160114A1, “Reagents and methods for predicting drug resistance” (Oncotech, Inc., priority 2004, published 2006).

The experiment concerns tumor cells from patient tumor samples. Briefly: Extreme Drug Resistance (EDR) assay, tritiated thymidine incorporation in soft agarose culture. It counts as cell-based, human. The note with it: supratoxic dose 33 μM, positive (background) control group.

Method: In the practice of this assay, tumor cells are taken from a cancer biopsy and exposed to cancer chemotherapeutics in culture. During the culture period, radioactive thymidine is added, which is incorporated into the DNA of growing and dividing cancer cells (which are thus resistant to the cytostatic or cytotoxic effects of the cancer chemotherapeutic). Tritiated thymidine is not incorporated into cells that are sensitive to the drug and reduce or suspend growth and division in response to the drug. […] By measuring the amount of radioactivity in a sample, the assay determines the relative resistance of an individual patient's cancer cells to a number of different chemotherapies. […]
The EDR assay is an agarose-based culture system, using tritiated thymidine incorporation to define in vitro drug response. […] The radioactivity trapped on the filters was counted with an LS-6500 scintillation Counter (Beckman, Fullerton, Calif.). […] Detectable radioactivity for this group was considered non-specific background related to debris trapping of tritiated thymidine on the filter. After subtracting background control values, percent control inhibition (PCI) of proliferation was determined by comparing thymidine incorporation by the treatment group with incorporation by the negative control group: PCI=100%×[1−(CPM treatment group/CPM control group)]. […]

On to `N.N.[Cl][Pt][Cl]` [Cisplatin], for which the cell death turned out to be 100%.
